Laboratory results taken from patent US20080171768A1, “Pharmaceutical Composition Containing An Anti Parasitic Agent And Active Ingredient Selected From Carveol, Thymol, Eugenol, Borneol, Carvacrol, Alpha-Ionone, Or Beta-Ionone” (ADVANCED SCIENTIFIC DEVELOPMENTS, priority 2005, published 2008).
Where two headings read alike, the source gives them in different places.

Legend:
[1] = test system: Eimeria acervulina and Eimeria tenella; experiment: Treatment of subclinical coccidiosis in broiler chickens (in vivo); design: species or system Eimeria acervulina and Eimeria tenella (in chickens); settings: infected chickens, 5 days treatment in feed (salinomycin 40 mg/kg feed, carvacrol or thymol 75 mg/kg feed); for Weight gain (grams ± SD) Day 5: day 5, immediately after stopping treatment; for Weight gain (grams ± SD) Day 15: day 15, 10 days after stopping treatment
Protocol: These in vivo tests were designed to measure weight gain, consumption index, daily oocyst output and appearance of fecal matter in treated chickens.
The experiment was carried out on 200 chickens aged 22 days (average weight 620 g) afflicted with subclinical coccidiosis sampled from a group of 10,000 broiler chickens.
Subclinical coccidiosis was diagnosed on day 20. The mean oocyst output in the experimental animals was 50,000 oocysts/g (OPG).
The antiparasitic agent used is salinomycin, one of the most widely used antiparasitics for this type of infection. Two antiparasitic pharmaceutical compositions according to the invention were prepared by mixing salinomycin at different concentrations with carvacrol or thymol at a sub-inhibitory concentration of 75 mg/kg of feed.
Antiparasitic activity was also determined either with salinomycin alone, or with carvacrol alone or thymol alone. Antiparasitic activity was measured according to the conventional criteria for this type of infection: weight gain, consumption index, daily oocyst output and appearance of fecal matter. These criteria were measured on day 5 (immediately after stopping treatment) and on day 15 (10 days after stopping treatment).
The sample was subdivided into seven groups of […]:
Group 1: Uninfected, untreated animals (healthy controls). Mean weight on day 22: 750 g.
Group 2: Infected, untreated animals (affection controls).
Group 3: Infected animals treated with salinomycin at a dose of 40 mg/kg of feed. Group 4: Infected animals treated with carvacrol 75 mg/kg of feed.
Group 5: Infected animals treated with thymol 75 mg/kg of feed.
Group 6: Infected animals treated with salinomycin 40 mg/kg of feed potentiated by carvacrol 75 mg/kg of feed.
Group 7: Infected animals treated with salinomycin 40 mg/kg of feed potentiated by thymol 75 mg/kg of feed.
The antiparasitic agents used were mixed with this feed during the five days of treatment. The animals had free access to the feed throughout the experiment.

[2] = test system: Plasmodium falciparum clones 3d7, HB3, Dd2 and 7G8; experiment: In vitro IC50, growth of Plasmodium falciparum clones on human red blood cells (SybrGreen DNA fluorescence); format: cell-based
Protocol: The experiment was carried out with four clones (named 3d7, HB3, Dd2 and 7G8) of the malarial agent Plasmodium falciparum, a parasitic disease also known as malaria. These clones are laboratory reference models commonly used to screen drugs for antimalarial activity.
Plasmodium falciparum was grown on human red blood cells. The test was carried out in 96-well plates in which infected red blood cells (synchronized with sorbitol) were contacted with the different treatments for 72 hours at 37° C. in an incubator with controlled atmosphere (5% CO2, 1% O2, 94% N2). Growth of the pathogen was measured by quantifying fluorescent DNA in the presence of SybrGreen.
An antiparasitic pharmaceutical composition according to the invention was prepared by mixing artesunate at different concentrations with carvacrol or eugenol at sub-inhibitory concentrations of 0.05 mM and 0.2 mM, respectively. […] This pharmaceutical composition according to the invention was named artesunate P eugenol or artesunate P carvacrol, the letter P signifying potentiation by eugenol or carvacrol.
In each case, antiparasitic activity was determined either with artesunate alone, or with carvacrol alone, or with eugenol alone, or with the composition of the invention.
The IC50 was determined with Harald Noedl's HN NonLin V1.051 Beta software based on the fluorescence values.
The experiment was carried out with the same Plasmodium falciparum clones as in example 2 (3d7, HB3, Dd2 and 7G8), the first two clones (3d7 and HB3) being susceptible and the other two (Dd2 and 7G8) being resistant to chloroquine.
Chloroquine, one of the most widely used antiparasitic agents, is tested. […] This pharmaceutical composition was named chloroquine P eugenol, the letter P signifying potentiation by eugenol.
In each case, antiparasitic activity was determined either with chloroquine alone, or with eugenol alone, or with the composition of the invention.
The IC50 was determined as in example 2.
The experiment was carried out with the same Plasmodium falciparum clones as in examples 2 and 3 (3d7, HB3, Dd2 and 7G8), the first two clones (3d7 and HB3) being susceptible and the other two (Dd2 and 7G8) being resistant to […].
Mefloquine, one of the most widely used antiparasitic agents, is tested. […] This pharmaceutical composition according to the invention was named mefloquine P eugenol, the letter P signifying potentiation by eugenol.
In each case, antiparasitic activity was determined either with mefloquine alone, or with eugenol alone, or with the composition of the invention.
The IC50 was determined as in examples 2 and 3.

Plasmodium berghei ANKA = experiment: Cerebral malaria model, CBA/J mice infected with Plasmodium berghei ANKA (in vivo)
Excerpt: Here, the intrinsic antimalarial activity of carvacrol as well as artesunate potentiated by carvacrol was studied in vivo in an animal model of cerebral malaria (neuromalaria). The reference model for this type of infection makes use of CBA/J mice infected with Plasmodium berghei ANKA, an agent that causes cerebral malaria.
The intraperitoneal route was used for infection and treatment of the mice.
In this model, the onset of the first clinical signs occurs by day 4 or 5 (D4 or D5) after infection. Animals presenting these signs die in the next two days (D6 and D7).
The test was carried out on five groups of 10 mice as follows:
Group 1: Uninfected, untreated controls
Group 2: Infected mice treated with carvacrol (60 mg/kg of weight) twice a day every 12 hours
Group 3: Infected mice treated with carvacrol (40 mg/kg of weight) twice a day every 12 hours
Group 4: Infected mice treated with artesunate (40 mg/kg of weight) once a day
Group 5: Infected mice treated with artesunate (40 mg/kg of weight) once a day and with carvacrol (40 mg/kg of weight) twice a day.
Treatment commenced five days after infection (D5) and continued for three days (D5, D6, D7).

[3] = artesunate 40 mg/kg once a day, intraperitoneal, D5-D7
[4] = carvacrol 40 mg/kg twice a day (80 mg/kg/24 h), intraperitoneal, D5-D7
[5] = carvacrol 60 mg/kg twice a day (120 mg/kg/24 h), intraperitoneal, D5-D7

CC[C@@H](C(=O)[C@@H](C)[C@@H](O)[C@H](C)[C@@H]1O[C@@H]([C@@H](CC)C(=O)O)CC[C@@H]1C)[C@H]1O[C@]2(C=C[C@@H](O)[C@]3(CC[C@@](C)([C@H]4CC[C@](O)(CC)[C@H](C)O4)O3)O2)[C@H](C)C[C@@H]1C [Salinomycin, salinomycin, reference compound]
Consumption index Day 5 [1]: 2.2
Fecal appearance Day 5 [1]: Diarrheal
Oocyst output (OPG ± SD) Day 5 [1]: 110,000 ± 6700 OPG
Weight gain (grams ± SD) Day 5 [1]: 182 ± 28 grams
Consumption index Day 15 [1]: 2.9
Fecal appearance Day 15 [1]: Diarrheal
Oocyst output (OPG ± SD) Day 15 [1]: 164,000 ± 7200 OPG
Weight gain (grams ± SD) Day 15 [1]: 835 ± 44 grams

C=CCc1ccc(O)c(OC)c1 [eugenol]
IC50 ([2]; Plasmodium falciparum, Erythrocyte, 72 h, read-out: IC50 eugenol alone, Clone 3d7): 1250 µM
IC50 ([2]; Plasmodium falciparum, Erythrocyte, 72 h, read-out: IC50 eugenol alone, Clone 7G8): 400 µM
IC50 ([2]; Plasmodium falciparum, Erythrocyte, 72 h, read-out: IC50 eugenol alone, Clone Dd2): 660 µM
IC50 ([2]; Plasmodium falciparum, Erythrocyte, 72 h, read-out: IC50 eugenol alone, Clone HB3): 660 µM

OC(c1cc(C(F)(F)F)nc2c(C(F)(F)F)cccc12)C1CCCCN1 (stereo not drawn) [mefloquine]
IC50 ([2]; Plasmodium falciparum, Erythrocyte, 72 h, Clone 3d7 (susceptible to mefloquine), read-out: IC50 mefloquine alone): 0.00883 µM
IC50 ([2]; Plasmodium falciparum, Erythrocyte, 72 h, Clone 7G8 (resistant to mefloquine), read-out: IC50 mefloquine alone): 0.0153 µM
IC50 ([2]; Plasmodium falciparum, Erythrocyte, 72 h, Clone Dd2 (resistant to mefloquine), read-out: IC50 mefloquine alone): 0.0338 µM
IC50 ([2]; Plasmodium falciparum, Erythrocyte, 72 h, Clone HB3 (susceptible to mefloquine), read-out: IC50 mefloquine alone): 0.00896 µM

CCN(CC)CCCC(C)Nc1ccnc2cc(Cl)ccc12 (stereo not drawn) [chloroquine]
IC50 ([2]; Plasmodium falciparum, Erythrocyte, 72 h, read-out: IC50 chloroquine alone, Clone 3d7 (susceptible to chloroquine)): 0.0223 µM
IC50 ([2]; Plasmodium falciparum, Erythrocyte, 72 h, read-out: IC50 chloroquine alone, Clone 7G8 (resistant to chloroquine)): 0.445 µM
IC50 ([2]; Plasmodium falciparum, Erythrocyte, 72 h, read-out: IC50 chloroquine alone, Clone Dd2 (resistant to chloroquine)): 0.494 µM
IC50 ([2]; Plasmodium falciparum, Erythrocyte, 72 h, read-out: IC50 chloroquine alone, Clone HB3 (susceptible to chloroquine)): 0.0371 µM

Cc1ccc(C(C)C)c(O)c1 [Thymol, thymol]
Consumption index Day 5 [1]: 2.45
Fecal appearance Day 5 [1]: Diarrheal
Oocyst output (OPG ± SD) Day 5 [1]: 98,000 ± 4200 OPG
Weight gain (grams ± SD) Day 5 [1]: 180 ± 52 grams
Consumption index Day 15 [1]: 3.3
Fecal appearance Day 15 [1]: Diarrheal
Oocyst output (OPG ± SD) Day 15 [1]: 136,000 ± 6500 OPG
Weight gain (grams ± SD) Day 15 [1]: 840 ± 45 grams

C[C@H]1[C@H](OC(=O)CCC(=O)O)O[C@@H]2O[C@@]3(C)CC[C@H]4[C@H](C)CC[C@@H]1[C@@]24OO3 [artesunate]
% mortality (Plasmodium berghei ANKA; [3]): 100%
Survival time of animals that died (Plasmodium berghei ANKA; [3]): 7 days
protection of treated animals (in words) (Plasmodium berghei ANKA; artesunate alone 40 mg/kg/24 h): does not provide any protection
IC50 ([2]; Plasmodium falciparum, Erythrocyte, 72 h, read-out: IC50 artesunate alone, Clone 3d7): 0.00214 µM
IC50 ([2]; Plasmodium falciparum, Erythrocyte, 72 h, read-out: IC50 artesunate alone, Clone 7G8): 0.001 µM
IC50 ([2]; Plasmodium falciparum, Erythrocyte, 72 h, read-out: IC50 artesunate alone, Clone Dd2): 0.00266 µM
IC50 ([2]; Plasmodium falciparum, Erythrocyte, 72 h, read-out: IC50 artesunate alone, Clone HB3): 0.00228 µM
IC50 ([2]; read-out: IC50 artesunate alone, Clone 7G8, 72 hours): 0.00125 µM

Cc1ccc(C(C)C)cc1O [carvacrol]
Consumption index Day 5 [1]: 2.4
Fecal appearance Day 5 [1]: Diarrheal
Oocyst output (OPG ± SD) Day 5 [1]: 105,000 ± 5900 OPG
Weight gain (grams ± SD) Day 5 [1]: 176 ± 32 grams
Consumption index Day 15 [1]: 3
Fecal appearance Day 15 [1]: Diarrheal
Oocyst output (OPG ± SD) Day 15 [1]: 147,000 ± 4300 OPG
Weight gain (grams ± SD) Day 15 [1]: 812 ± 51 grams
protection of treated animals (in words) (Plasmodium berghei ANKA; carvacrol 40 mg/kg twice a day (80 mg/kg/24 h)): does not afford any protection
% mortality (Plasmodium berghei ANKA; [4]): 100%
Survival time of animals that died (Plasmodium berghei ANKA; [4]): 7.5 days
% survivor at D12 (Plasmodium berghei ANKA; [5]): 80%
Survival time of animals that died (Plasmodium berghei ANKA; [5]): 7.5 days
% mortality (Plasmodium berghei ANKA; carvacrol 60 mg/kg twice a day (120 mg/kg/24 h), intraperitoneal, D5-D7 after infection): 20%
IC50 ([2]; Plasmodium falciparum, Erythrocyte, 72 h, read-out: IC50 carvacrol alone, Clone 3d7): 330 µM
IC50 ([2]; Plasmodium falciparum, Erythrocyte, 72 h, read-out: IC50 carvacrol alone, Clone 7G8): 110 µM
IC50 ([2]; Plasmodium falciparum, Erythrocyte, 72 h, read-out: IC50 carvacrol alone, Clone Dd2): 160 µM
IC50 ([2]; Plasmodium falciparum, Erythrocyte, 72 h, read-out: IC50 carvacrol alone, Clone HB3): 220 µM
